From ChEMBL document CHEMBL3507680, “University of Dundee, Gates Library screen for HepG2 cell viability”

Test: Human HepG2 cell viability assay in 384 well format
Format: toxicity, cell-based
Parameters: dose 125 nL, time 70.5 hour; concentration not given beside the values
Conditions: HepG2 cells, read-out: Inhibition

| SMILES | cytotoxicity at 70.5 h [%] |
| --- | --- |
| CCOC(=O)C1CCCCN1Cc1c[nH]nc1-c1ccc(F)cc1F (stereo not given) | -7.54 |
| Cc1nc(C2CCCNC2)cc(N(C)CCc2ccccc2)n1 (stereo not given) | 20.6 |
| CC(C)(C)c1cn(C2CCN(C(=O)c3cnccn3)CC2)nn1 | -13.1 |
| CN(CCCc1cnn(C)c1)Cc1cc2n(n1)CCCN(C)C2 | -7.1 |
| COc1cc2ncn(Cc3ncc[nH]3)c(=O)c2cc1OC | -23.4 |
| O=C(O)c1ccnc(-c2ccnc(COc3ccc(Cl)cc3)n2)c1 | -9.69 |
| Cc1ccccc1Oc1ncccc1CNC(=O)Cn1cccnc1=O | 3.17 |
| COc1cccc(OCC2CCCN(C(=O)CCn3ccnc3)C2)c1 (stereo not given) | 11.7 |
| CCc1nc(N2CCCC(CO)(CCOC)C2)ncc1C (stereo not given) | -7.73 |
| Cc1ncsc1CCC(=O)N(C)Cc1nc2ccccc2n1C | -1.06 |
| O=C(c1ccc(Cn2cnnn2)cc1)N1CCC(c2ccncc2)CC1 | -3.04 |
| CC(C)N1CC(C(=O)N2CCc3c(nc(CC4CC4)[nH]c3=O)C2)CC1=O (stereo not given) | -2.23 |
| CCCN1CCC(CC(=O)N(C)C(C)c2cncs2)CC1 (stereo not given) | -16.1 |
| CCOC(=O)c1ccc(N2CCN(Cc3c(C)nn(C)c3Cl)CC2)nc1 | 12.7 |
| CO[C@H]1C[C@@H](O)C12CCN(Cc1nc(C(F)(F)F)no1)CC2 | -10.9 |
| Cc1noc(C)c1CCCNc1cnccn1 | -16.9 |
| CC(C)CN1CC2(CCN(C(=O)C(O)c3ccccc3Cl)CC2)CC1=O (stereo not given) | -5.68 |
| CCc1ccccc1-c1cc(C)nc(N)n1 | -7.75 |
| COCc1cc(CNCc2c(C)n(CC(N)=O)c3ccccc23)n[nH]1 | -9.7 |
| Cc1cc(N2CCN(C(=O)Cc3c(C)nc(C)[nH]c3=O)CC2)cc(C)n1 | 18.5 |
| CCc1ccc(CN2CCC(c3ccccc3C(=O)O)C2)nc1 (stereo not given) | -13.9 |
| COc1ccccc1Oc1ncccc1CNC(=O)C(C)CN (stereo not given) | -9.25 |
| CCc1nc(C)c([C@H]2CN(C)C[C@@H]2C(=O)Nc2cccc3cn[nH]c23)[nH]1 | -5.72 |
| CCCn1cc(-c2cc(-c3cc(CC)n[nH]3)c(C#N)c(N)n2)c(C)n1 | -3.18 |
| O=C(CN1CCCCCC1)NCc1ccc2[nH]c(=O)[nH]c2c1 | -8.16 |
| COc1cc(C(=O)N2C[C@H]3CC[C@@H]2CN(Cc2cscn2)C3)ccn1 | -22.3 |
| O=C(CCc1cn[nH]c1)N1C[C@@H](CN2CCOCC2)C[C@H](CO)C1 | 8.69 |

| SMILES | cytotoxicity at 70.5 h [%] |
| --- | --- |
| Cc1nc(C(C)C)sc1C(=O)N1CCC(N2CCSCC2)CC1 | -12.7 |
| CCN(Cc1cn(C)nc1-c1ccc2c(c1)OCCO2)CC1CCCO1 (stereo not given) | -6.76 |
| CCc1noc(CN2C[C@H]3CC[C@@H]2CN(C2Cc4ccccc4C2)C3)n1 | 4.55 |
| CCc1cc(N2CCN(c3ccc(Cl)cn3)CC2)n2nccc2n1 | -1.55 |
| Cn1cc(C(=O)N2CCC(c3nccn3Cc3ccncc3)CC2)cn1 | -7.19 |
| COc1ccc2cc(CN(C)CCN3CCCCC3=O)c(=O)[nH]c2c1 | -12.2 |
| CC(C)c1nc(CN(C)Cc2ccc(O)c(C(=O)O)c2)cs1 | -4.7 |
| O=C(CCc1cc2n(n1)CCN(CCCn1cccc1)C2)N1CCCC1 | -10.4 |
| O=C(Cc1ccc(CO)cc1)N1CCN(c2ccccc2Cl)C(=O)C1 | -9.48 |
| CS(=O)(=O)c1cnc(C2CCCC2)nc1C1CCCNC1 (stereo not given) | 1.49 |
| CCCOCC(=O)N1CCCC(c2nnc(CN3CCCCC3)n2C)C1 (stereo not given) | 9.63 |
| Cc1ccc(N2CCC(C3CCN(CC(C)C)CC3)C2)nn1 (stereo not given) | -6.28 |
| CCc1cnc(N2Cc3cnc(C(C)(C)C)nc3C2)nc1 | -3.57 |
| COc1ccc(-c2cc(C3CCOC3)c(C#N)c(N)n2)cn1 (stereo not given) | 18.9 |
| Cn1ccnc1-c1cn(CCc2nnc(N)s2)nn1 | 43.6 |
| CCn1c(C2CCNCC2)nn(CCn2cncn2)c1=O | -6.69 |
| Cc1cncc(C(=O)N2CCNCC2C(=O)NCc2ccncc2)c1 (stereo not given) | -1.53 |
| O=C(CNc1cc(-c2ccccc2)nc2ccnn12)NC1CC1 | -0.964 |
| COc1ccc(C)cc1-n1cnnc1C1CCCN(C)C1 (stereo not given) | 9.2 |
| CN(Cc1cccc2ncccc12)C(=O)CCn1ccc(=O)[nH]c1=O | -1.13 |
| Cc1nc(N(C)C)nc(NCCc2cnccn2)c1C | -1.68 |
| O=S(=O)(CC1CC1)c1ncc(CN2CCOCC2)n1CC1CCCO1 (stereo not given) | -0.667 |
| c1cc(CN2CCCN(c3ccc4cc[nH]c4n3)CC2)ccn1 | -1.4 |
| CCCc1nnc(N(C)CC2CCCN(CC)C2)o1 (stereo not given) | 15.4 |
| Cc1c(C2c3nc[nH]c3CCN2CCOCc2ccccc2)cnn1C (stereo not given) | -10.4 |
| CCN(Cc1c(F)cccc1Cl)c1cc(C2CCNCC2)nc(C)n1 | 2.62 |
| CCCc1ccc(CN2CCN(C(=O)N(C)C)[C@@H]3CS(=O)(=O)C[C@@H]32)o1 | -10.7 |

| SMILES | cytotoxicity at 70.5 h [%] |
| --- | --- |
| CCc1ccc2ncn(Cc3ncc[nH]3)c(=O)c2c1 | -18.6 |
| CC(C)Cc1ncc2c(n1)CN(C(=O)Cn1c(=O)oc3ccccc31)C2 | -14.5 |
| CC(Cn1ccnc1)NCc1ccc2nonc2c1 (stereo not given) | -2.31 |
| CCc1ncc2c(n1)CN(c1cc(N3CCN(C)CC3)nc(N)n1)C2 | 25 |
| Cc1cccc2[nH]c(C3CCN(C(=O)c4ccc[nH]4)CC3)nc12 | -6.62 |
| Cc1nc(CNCc2cccnc2Oc2ccc(C)c(F)c2F)c[nH]1 | 0.762 |
| CN(CCN1CCCCCC1)C(=O)c1cc(CN2CCCC(O)C2)on1 (stereo not given) | -10.1 |
| COCCN(C/C=C/c1ccccc1)Cc1ncc[nH]1 | -5.41 |
| c1ccc(Cc2noc(-c3ccc(NCC4CCCOC4)nc3)n2)cc1 (stereo not given) | -2.44 |
| COc1ccc2c(C)c(C(=O)NCCCc3csc(N)n3)oc2c1 | 8.41 |
| CC(=O)N1CCCn2nc(CNS(=O)(=O)N3CCC(C)CC3)cc2C1 | -11.6 |
| CCn1nc(C)c(NC(=O)CN2CC[C@@H](F)C2)c1C | -4.28 |
| NC(=O)NCC(=O)N1C[C@H]2CC[C@@H]1CN(Cc1cscn1)C2 | 9.8 |
| O=C(N[C@@H]1CCN(C(=O)c2ccc(F)cc2Cl)C[C@H]1O)c1ccccn1 | -6.49 |
| Cc1nn2cc(CNc3nccc(CCC(F)(F)F)n3)nc2s1 | -9.54 |
| COCc1cc(CNC(=O)c2c(C)c(C)cc(C)c2C)n[nH]1 | -4.32 |
| CCOc1cccc(C(=O)N2CCCn3nc(CCC(=O)O)cc3C2)c1 | -5.68 |
| COc1ccc(CN2CCCC3(CC2)CNC(=O)O3)cc1OC (stereo not given) | 12.1 |
| Cc1ccccc1-n1cc(C2=CCN(CCN3CCOCC3)CC2)cn1 | 12.8 |
| COc1cccc(-c2noc(-c3ccc(NCC(C)C)nc3)n2)c1OC | -2.74 |
| COCCc1noc(CN2CCC(c3ccccc3C(=O)O)C2)n1 (stereo not given) | -20.1 |
| Cc1nc2c(c(NCC3Cc4ccccc4CN3C)n1)CCNCC2 (stereo not given) | -8.03 |
| Cc1nc(C(=O)N(Cc2c(C)nn(C)c2C)C(C)C)cs1 | -0.883 |
| CC(C)c1noc(C2CCCN2S(=O)(=O)N2CCCCCC2)n1 (stereo not given) | -6.79 |
| Cc1nccc(NCc2cc3n(n2)CCCN(S(C)(=O)=O)C3)n1 | -3.08 |
| CN(Cc1noc2c1CCCC2)C(=O)Nc1cccc(S(N)(=O)=O)c1 | 17.1 |
